According to patent US20170304260A1, “ALTRENOGEST FORMULATION AND USES THEREOF FOR ESTRUS SYNCHRONISATION IN ANIMALS” (priority 2014, published 2017):

Assay: Storage stability of microcapsule emulsion / powder (Method 1, spray-drying)
Format: physicochemical
Conditions: liquid and dry form of the microcapsule emulsion, ambient temperature
Protocol: Method 1: Dry Microcapsule Obtained by Atomisation (Spray-Drying)
The emulsion comprising the ingredients above was pre-homogenized with a Polytron™ homogenizer for 3 min at 9000 rpm, then homogenized with a two-stage Avestin™ homogenizer (3*5000 psi+1*500 psi).
Spray drying was performed under the following conditions: spray dryer BUCHI® Mini Spray Drier B-191 with a 2 mm nozzle diameter, air pressure of 60 psi. The emulsion was fed into the main chamber through peristatic pump, feed flow rate was 400 ml/h, inlet air temperature was 160° C. and outlet temperature was 65° C. The dried microcapsules were collected in a cyclone.
Particle size distribution of the final emulsion was less than 1 micron and the powder obtained by atomisation or freeze drying had good rehydration properties, low surface oil and low oxidation during the powder storage. Furthermore, the emulsion in liquid form containing 1.5% sodium caseinate and 15% sunflower oil was physically stable when pasteurized with no preservation agents added to it. Maltodextrin was used as a “wall material” to permit further drying of the emulsion. Additionally, the retention of Altrenogest was well preserved in both the liquid and dry form for a period of at least 5 months at ambient temperature.

- period over which retention of Altrenogest was well preserved: at least 5 months
SMILES: C=CC[C@]1(O)CC[C@H]2[C@@H]3CCC4=CC(=O)CCC4=C3C=C[C@@]21C [Altrenogest]
